Results published in PMC8160850 (Viruses, 2021).
Several values for one entry are separate records, joined by “and”; a condition that tells them apart may be missing. Equal values may be shown once. Read-outs that look alike come from different tables or passages of the source.

Key:
[1] = tested on: MRC5 cells; assay type: cell-based
[2] = tested on: MRC5 cells; test: Cell viability of uninfected cells in the screening; assay type: cell-based; details: 7 days
[3] = tested on: HCMV TB4-UL83-EYFP; assay type: cell-based, human cytomegalovirus (HCMV); details: 7 days p.i., MOI 0.03 IU/cell
[4] = tested on: HCMV AD169; test: Plaque reduction assay (PRA) in HFF cells; assay type: cell-based, human cytomegalovirus (HCMV)
[5] = tested on: HCMV AD169 gene expression (IE1, ppUL44, pp65, pp28); test: Analysis of HCMV gene expression by Western blotting in infected MRC5 cells; assay type: cell-based, human cytomegalovirus (HCMV); details: GCV 16 μM, B3 50 μM; for IE1 expression: 6 and 12 h p.i., AD169 MOI 2 IU/cell; for Expression of ppUL44 and pp65: 48 h p.i.; for pp28 expression: 72 h and 96 h p.i.; for ppUL44 and pp65 levels: up to 24 h p.i.
[6] = tested on: AD169-GFP26 (UL97 M460I); test: FRA with GCV-resistant AD169-GFP26 in MRC5 cells; assay type: cell-based, human cytomegalovirus (HCMV); details: MRC5, MOI 0.05 IU/cell, 7 days, n = 6
[7] = MTT cell cytotoxicity assay; assay type: cell-based; details: human, uninfected MRC5 cells, MTT, uninfected MRC5, 7 days
[8] = tested on: MRC5 cells; test: MTT cell cytotoxicity assay; assay type: cell-based; details: for Selectivity index (SI), CC50/ED50: MTT CC50 / FRA ED50 TB4-UL83-EYFP; for Cytotoxicity (in words): MRC5, up to 100 μM, 7 days
[9] = tested on: MRC5 cells; test: Intracellular ATP quantification; assay type: cell-based; details: for Reduction of intracellular ATP levels: 100 μM
[10] = tested on: AD169-GFP26 (UL97 M460I); test: Virus yield reduction assay (VYRA) with AD169-GFP26; assay type: cell-based, human cytomegalovirus (HCMV); details: AD169-GFP26 (GCV-resistant), n = 4
[11] = tested on: AD169-GFP; test: Virus yield reduction assay (VYRA) with AD169-GFP; assay type: cell-based, human cytomegalovirus (HCMV); details: n = 4
[12] = tested on: AD169-GFP; test: FRA with AD169-GFP in MRC5 cells; assay type: cell-based, human cytomegalovirus (HCMV); details: MRC5, MOI 0.05 IU/cell, 7 days, n = 6
[13] = tested on: hepatitis C virus (HCV); parameters: method as in earlier work; details: Huh7-Lunet cells ref 60; cited from earlier work
[14] = tested on: HCMV TB4-UL83-EYFP genome; test: Analysis of HCMV DNA replication by qPCR in infected MRC5 cells; assay type: cell-based, human cytomegalovirus (HCMV); details: for Decrease in viral genome copy number: B3 50 μM, MOI 0.01 IU/cell
[15] = tested on: HCMV TB4-UL83-EYFP; test: Dose-response fluorescence reduction assay; assay type: cell-based, human cytomegalovirus (HCMV); details: FRA, MRC5, MOI 0.03 IU/cell, 7 days p.i.

| SMILES | Inhibition of viral replication (YFP fluorescence) ([3]; 10 μM) | ED50 [4] [µM] | IE1 expression [5] | Expression of ppUL44 and pp65 [5] | pp28 expression [5] | ppUL44 and pp65 levels [5] | ED50 [6] [µM] | CC50 at 7 days [7] [µM] | Selectivity index (SI), CC50/ED50 [8] | Cytotoxicity (in words) ([8]; MTT) | ED50 [10] [µM] | ED50 [11] | ED50 [12] | Reduction of intracellular ATP levels ([9]; 24 h post treatment) | also measured |
| --- | --- | --- | --- | --- | --- | --- | --- | --- | --- | --- | --- | --- | --- | --- | --- |
| CCOc1ccccc1[C@H]1C(C#N)=C(SCC(=O)OC)NC(=O)[C@@H]1C#N [A4] |  |  |  |  |  |  |  |  |  |  |  |  |  |  | Solubility in culture medium (precipitates) [1]: not soluble; Cytotoxicity ([2]; 10 μM, uninfected MRC5): caused evident cytotoxicity |
| OC[C@@H](O)Cn1c(Cc2cccc3ccccc23)nc2ccccc21 [B3] | inhibited viral replication | 7.9 ± 3.5 | neither GCV nor B3 treatment affected IE1 expression | decrease | strongly inhibited | not affected | 17.6 ± 12.8 | > 100 | > 20 | did not cause evident cytotoxicity up to 100 μM | 9.8 ± 15.6 | 5.1 ± 3.3 µM | 7.9 µM and 7.9 ± 2.7 µM |  | Effect on intracellular ATP levels ([9]; all time points analyzed (24, 72, 144 h)): minimal effects; Effect on protein expression and hepatitis C virus replication [13]: did not affect either protein expression nor hepatitis C virus replication; Decrease in viral genome copy number ([14]; 72 h p.i.): ~ 4 fold; Decrease in viral genome copy number ([14]; 120 h p.i.): 6 fold |
| Cc1ccc(-c2nnc(Nc3ccc(CC(N)=O)cc3)c3ccccc23)cc1S(=O)(=O)NC1CCCCC1 [B6] | inhibited viral replication |  |  |  |  |  |  | ~10 | < 5 |  |  |  |  | more than 50% | ED50 [15]: 2.1 ± 0.6 µM; CC50 ([8]; MTT, uninfected MRC5, 7 days): 10.7 ± 2.3 µM; Reduction of intracellular ATP levels ([9]; 72 h post treatment): ~100% |
| O=C(O)C[C@H]1S/C(=N/N=C/c2c(OCc3ccccc3Cl)ccc3ccccc23)NC1=O [C6] |  |  |  |  |  |  |  | > 100 |  | low cytotoxicity |  |  |  | more than 30% | Inhibition of viral replication (YFP fluorescence) ([3]; 100 μM): impaired viral replication; Cell morphology upon microscopic evaluation [1]: significantly altered; Reduction of cell viability ([2]; 100 μM, MTS and CellTiter Glo): ≤ 40% |
| Nc1nc(O)c2ncn(COC(CO)CO)c2n1 [GCV, Ganciclovir, reference compound] |  | 1.3 ± 0.9 | neither GCV nor B3 treatment affected IE1 expression | decrease | strongly inhibited | not affected | 21.7 ± 9.6 | > 100 |  | did not cause detectable cytotoxic effects at any concentration tested | 4.7 ± 4.8 | 0.7 µM and 0.7 ± 0.4 µM | 2.3 µM and 2.3 ± 1.9 µM |  | Viral genome copy number (in words) ([14]; GCV 16 μM, starting from 72 h p.i.): significantly reduced viral genome copy number |
